{"source": "patent US20260375265A1", "about": "“COMPOSITION FOR ALLEVIATING SKIN PIGMENTATION” (LG H & H CO., LTD., priority 2023, published 2026)", "key": {"[1]": {"test_system": "scattered dark spots on skin", "assay": "Human application trial: customized prescription for high-risk group of scattered dark spots", "type": "in vivo", "settings": "twice daily, four weeks", "procedure": "Accordingly, it was aimed to provide specific substances capable of increasing the improvement efficiency of scattered dark spots according to the risk level of developing scattered dark spots on skin, dark skin tone, and/or spot pigmentation.\nAfter receiving approval from the Institutional Review Board (IRB, Korea) (LG-SKEV-2022-09-A), the study was conducted in accordance with the standard operating guidelines and clinical trial standards of the Institutional Review Board of LG Household & Health Care Co., Ltd. Ten healthy adult subjects aged 20-50 with no apparent skin abnormalities were selected. […]\nPIE's Janus3 was used to photograph the front and side of the face under normal, polarized, and UV light. […] The pigmentation improvement rate (%) was calculated by determining the percentage reduction in the pigmentation values after four weeks of use compared to the polarized pigmentation values before use."}, "[2]": {"test_system": "PPARGC1B", "assay": "qPCR of PPARGC1B mRNA expression in a-MSH-treated B16F10 cells", "type": "cell-based, mouse", "settings": "B16F10, 10 nM a-MSH plus substance, one day, appropriate concentration; FIG. 3", "procedure": "(§1) Screening was performed for substances that influence the expression of genes associated with spot pigmentation among various substances having the skin-improving efficacy. Changes in the expression of genes associated with spot pigmentation were examined in cells where melanin synthesis was increased by a-MSH, and substances that restored the expression to the level before a-MSH treatment were selected.\n(§2) Mouse melanoma cells (B16F10; CRL-6475) were purchased from ATCC for use. The purchased cells were cultured in a 37 °C/5% CO2 incubator using a medium prepared by supplementing Dulbecco's Modified Eagle Medium (DMEM-GIBCO) with 10% fetal bovine serum (FBS) and 1% penicillin/streptomycin.\n(§3) To analyze the efficacy on changes in the mRNA expression of genes associated with skin spot pigmentation, mouse melanoma cells were seeded at […] cells/well in 6-well plates and cultured in a 37 °C/5% CO2 incubator for one day. After replacing the medium with a fresh medium, 10 nM α-MSH was treated, and substances were added to the medium at appropriate concentrations and cultured for one day under the same conditions. Thereafter, total RNA was obtained using AccuPrep Universal RNA Extraction Kit (Bioneer, K-3140), and cDNA was synthesized using AccuPower® RocketScript™ Cycle (Bioneer, K-2202). The expression level of each gene was analyzed by performing qPCR using synthesized cDNA and taqman probe (assay ID: ASCL2-Mm01268891_m1, PPARGC1B-Mm00504730_m1, TP63-Hs00978349_m1)."}, "[3]": {"test_system": "dark skin tone", "assay": "Human application trial: customized prescription for high-risk group of dark skin tone", "type": "in vivo", "settings": "twice daily, four weeks", "procedure": "Accordingly, it was aimed to provide substances capable of increasing the improvement efficiency of dark skin tone according to the risk level of developing dark skin tone.\nAfter receiving approval from the Institutional Review Board (IRB, Korea) (LG-SKEV-2022-09-A), the study was conducted in accordance with the standard operating guidelines and clinical trial standards of the Institutional Review Board of LG Household & Health Care Co., Ltd. Nine healthy adult subjects aged 20-50 with no apparent skin abnormalities were selected.\nBased on the genetic polymorphic markers associated with skin tone brightness in Table 2, subjects were classified into low-risk and high-risk groups according to their risk level of developing dark skin tone as follows. • Risk scores (the sum of each genotype multiplied by its respective effect size (β)) for the five genetic markers were less than −0.193→low-risk group (n=4). • Risk scores (the sum of each genotype multiplied by its respective effect size (β)) for the five genetic markers were −0.193 or higher→high-risk group (n=5).\nThe same as in Example 4-2 […]\nPIE's Janus3 was used to photograph the front and side of the face under normal, polarized, and UV light. […] The pigmentation improvement was calculated by determining the increase in the skin tone brightness values after four weeks of use compared to the skin tone brightness values before use."}, "[4]": {"test_system": "KITLG", "assay": "qPCR of KITLG mRNA expression in UVB-irradiated human keratinocytes (HaCaT)", "type": "cell-based", "settings": "UVB 30 mJ/cm^2 (312 nm), substance one day, appropriate concentration, FIG. 2, UVB alone increased", "procedure": "as §1, with “dark skin tone” for “spot pigmentation”, “having” for “having the”\nTo analyze the efficacy on changes in the mRNA expression of genes associated with dark skin tone, RT-qPCR experiment was conducted. Cells were cultured in a 37 °C/5% CO2 incubator for one day. To assess the change of KITLG expression by UVB, the medium of human keratinocytes (HaCaT) was replaced with PBS, and 30 mJ/cm^2 of UVB (312 nm) was irradiated using an RMX 3W (Vilber Lourmat) instrument. The medium was replaced with a fresh medium and cultured for one day. To assess the change in KITLG expression by treatment with substances, the cells were treated with appropriate concentrations of substances along with a fresh medium and cultured for one day. […] The expression level of each gene was analyzed by performing qPCR using synthesized cDNA and taqman probe (assay ID: OCA2-Mm00498969_m1, BNC2-Mm00556284_m1, RAB32-Mm00458960_m1, KITLG-Hs00241497_m1)."}, "[5]": {"test_system": "RAB11FIP2", "assay": "qPCR of RAB11FIP2 mRNA expression in UVB-irradiated mouse melanoma cells", "type": "cell-based", "settings": "B16F10, UVB 30 mJ/cm^2 (312 nm), substance one day, appropriate concentration; FIG. 1; UVB alone decreased", "procedure": "as §1, with “scattered dark spots on skin” for “spot pigmentation”, “having” for “having the”, “UVB exposure,” for “a-MSH,”, “UVB exposure” for “a-MSH treatment”\nas §2\nTo analyze the efficacy on changes in the mRNA expression of genes associated with scattered dark spots on skin, mouse melanoma cells were seeded at 2*10^5 cells/well in 6-well plates and cultured in a 37 °C/5% CO2 incubator for one day. After replacing the medium with PBS, 30 mJ/cm^2 of UVB (312 nm) was irradiated using an RMX 3W (Vilber Lourmat) instrument. Substances were added to the medium at appropriate concentrations and cultured for one day under the same conditions. […] The expression level of each gene was analyzed by performing qPCR using synthesized cDNA and taqman probe (assay ID: AKAP1-Mm00501539_m1, RAB11FIP2-Mm01261268_m1, PPARGC1B-Mm00504730_m1)."}, "[6]": {"test_system": "mouse melanoma cells", "assay": "Inhibition of melanin production increased by UVB (scattered dark spots)", "type": "cell-based", "settings": "light or radiation study, 48 h, 25 ppm DIPA alone, UVB 30 mJ/cm^2, two days, FIG. 4, read-out: reduction of melanin production (Y)", "procedure": "In detail, mouse melanoma cells were seeded at 2*10^5 cells/well in 6-well plates and cultured in a 37 °C/5% CO2 incubator for one day, followed by irradiation with 30 mJ/cm^2 of UVB (312 nm). Each of media comprising appropriate concentrations and combinations of substances was added and cultured again in a 37 °C/5% CO2 incubator for two days to determine whether or not the substances inhibited the melanin production increased by UVB. Cells attached to the plates were collected in PBS and centrifuged to obtain cell pellets. The cell pellets were visually inspected and photographed. The cell pellets were dissolved in a 1 N NaOH (sodium hydroxide) solution comprising 10% dimethyl sulfoxide (DMSO) at 80 °C for 10 minutes, and placed in a 96-well plate, and absorbance at 405 nm was measured using an Epoch (Biotek) instrument. Melanin was quantified using the measured absorbance and normalized to the sample protein concentration to determine melanin concentration. The inhibition rate of melanin production of the sample was calculated as a ratio of the melanin concentration of the sample treatment group with respect to the melanin concentration increased by UVB.\nE=(X+Y)−(X*Y/100) Colby equation"}, "[7]": {"test_system": "PPARGC1B", "assay": "qPCR of PPARGC1B mRNA expression in UVB-irradiated mouse melanoma cells", "type": "cell-based", "settings": "B16F10, UVB 30 mJ/cm^2 (312 nm), substance one day, appropriate concentration; FIG. 1; UVB alone decreased", "procedure": "as §1, with “scattered dark spots on skin” for “spot pigmentation”, “having” for “having the”, “UVB exposure,” for “a-MSH,”, “UVB exposure” for “a-MSH treatment”\nas §2\nTo analyze the efficacy on changes in the mRNA expression of genes associated with scattered dark spots on skin, mouse melanoma cells were seeded at 2*10^5 cells/well in 6-well plates and cultured in a 37 °C/5% CO2 incubator for one day. After replacing the medium with PBS, 30 mJ/cm^2 of UVB (312 nm) was irradiated using an RMX 3W (Vilber Lourmat) instrument. Substances were added to the medium at appropriate concentrations and cultured for one day under the same conditions. Thereafter, total RNA was obtained using AccuPrep Universal RNA Extraction Kit (Bioneer, K-3140), and cDNA was synthesized using AccuPower® RocketScript Cycle (Bioneer, K-2202). The expression level of each gene was analyzed by performing qPCR using synthesized cDNA and taqman probe (assay ID: AKAP1-Mm00501539_m1, RAB11FIP2-Mm01261268_m1, PPARGC1B-Mm00504730_m1)."}, "[8]": {"settings": "general description; cited from earlier work"}, "[9]": {"settings": "general description; very acidic; concentration not given; cited from earlier work"}, "[10]": {"test_system": "ASCL2", "assay": "qPCR of ASCL2 mRNA expression in a-MSH-treated B16F10 cells", "type": "cell-based, mouse", "settings": "B16F10, 10 nM a-MSH plus substance, one day, appropriate concentration; FIG. 3", "procedure": "as §1, §2\nas §3, with “Thereafter, total RNA was obtained using AccuPrep Universal RNA Extraction Kit (Bioneer, K-3140), and cDNA was synthesized using AccuPower® RocketScript™ Cycle (Bioneer, K-2202).” left out"}, "[11]": {"settings": "8% vitamin C essence, high-risk group (n=5)"}}, "data": [{"compound": "O=C1O[C@H]([C@@H](O)CO)C(O)=C1O", "note": "[ascorbic acid]", "values": [{"measurement": "pigmentation improvement in the high-risk group", "setting": "[1]; [11]", "result": "did not improve pigmentation"}, {"measurement": "pigmentation improvement in the low-risk group", "setting": "[1]; low-risk group (n=5), FIGS. 10, 11", "result": "did not improve pigmentation"}, {"measurement": "change of PPARGC1B expression", "setting": "[2]", "result": "increased"}, {"measurement": "pigmentation improvement in the high-risk group", "setting": "[3]; [11]", "result": "did not improve pigmentation"}, {"measurement": "pigmentation improvement in the low-risk group", "setting": "[3]; low-risk group (n=4), FIGS. 12, 13", "result": "slightly improved pigmentation"}]}, {"compound": "O=c1cc(-c2ccccc2)oc2cc(O)cc(O)c12", "note": "[chrysin, 5,7-dihydroxyflavone]", "values": [{"measurement": "change of KITLG expression", "setting": "[4]", "result": "decreasing"}]}, {"compound": "CC(C)OC(=O)CCCCC(=O)OC(C)C", "note": "[diisopropyl adipate (DIPA), diisopropyl adipate]", "values": [{"measurement": "change of RAB11FIP2 expression", "setting": "[5]", "result": "increasing"}, {"measurement": "inhibition at 25 ppm", "setting": "[6]", "result": "~1.5", "unit": "%"}]}, {"compound": "NC(=O)c1cccnc1", "note": "[niacinamide, reference compound]", "values": [{"measurement": "change of PPARGC1B expression", "setting": "[7]", "result": "increased"}, {"measurement": "solubility in water", "setting": "[8]", "result": "dissolves well in water"}]}, {"compound": "O=C(O)c1ccccc1O", "note": "[salicylic acid, reference compound]", "values": [{"measurement": "change of PPARGC1B expression", "setting": "[7]", "result": "increased"}, {"measurement": "pH", "setting": "[9]", "result": 2.4}]}, {"compound": "tocopherol", "values": [{"measurement": "change of ASCL2 expression", "setting": "[10]", "result": "decreasing"}]}]}
